Structures can show the parent of a compound that is named as a salt.

Experimental findings from US8269026B2, “Lupane derivatives useful for treating HIV” (priority 2008, dated 2012) are described below.

For the first assay, the system named is HIV-1 (HIVIIIB) replication in MT2 cell line. The experiment in a line: HIV-1 replication in MT2 cell line with and without 30% human serum (viral RT activity in supernatant). The assay is classed as cell-based. As to conditions: Human immunodeficiency virus 1, MT2 cells, with 30% human serum, average IC50 if tested more than once, read-out: MT2 (HIVIIIB) with HS 30% IC50 range. How it is done:
HIV-1 Replication in MT2 cell line with and without 30% human serum: The cells are infected at a Multiciplicity of Infection (MOI) of 0.5 for 3 h and then washed twice with complete media to remove residual virus. Cells are then resuspended at 0.5×10^6/ml in complete medium (RPMI, 10% FBS, 1% sodium pyruvate), and seeded into 96-well plates (6.25×10^4/well). The cells are cultured in the presence or absence of various concentrations of test compounds in serial dilutions for 3 days at 37° C. The test compounds are serially diluted in complete medium supplemented or not with 30% human serum. After 3 days, 100 μL of cultured medium with cells are replaced with 120 μL of freshly diluted test compounds in complete medium containing or not 30% Human serum. The level of HIV-1 replication is determined at days 5 after infection by the presence of viral RT activity in harvested supernatant fluid. The IC50 and IC90 values for the virus replication are determined by using GRAPHPAD PRISM software.
The IC50 of the compounds tested in accordance with the HIV replication activity assay MT2 (HIVIIIB) are represented in Table 1.
Consider `CC(=O)N1CCN(C(=O)N[C@@]23CC[C@]4(C)[C@H](CC[C@@H]5[C@@]6(C)CC[C@H](OC(=O)CC(C)(C)C(=O)O)C(C)(C)[C@@H]6CC[C@]54C)C2=C(C(C)C)C(=O)C3)CC1` [17-17, 3β-O-(3′,3′-Dimethylsuccinyl)-17β-[(4-acetyl-piperazine-1-carbonyl)-amino]-21-oxolup-18-ene], for which the IC50 was below 199 nM. On the same count and under the same terms, with `CC(C)C1=C2C3CCC4[C@@]5(C)CC[C@H](OC(=O)CC(C)(C)C(=O)O)C(C)(C)C5CC[C@@]4(C)[C@]3(C)CC[C@@]2(NC(=O)N(C)C(C)C)CC1=O` (stereo partly drawn) [17-18, 3β-O-(3′,3′-Dimethylsuccinyl)-17β-[N′-isopropyl-N′-methyl-ureido]-21-oxolup-18-ene] the figure was below 199 nM; with `Cc1nnc(NC(=O)N[C@@]23CC[C@]4(C)C(CCC5[C@@]6(C)CC[C@H](OC(=O)CC(C)(C)C(=O)O)C(C)(C)C6CC[C@]54C)C2=C(C(C)C)C(=O)C3)o1` (stereo partly drawn) [17-19, 3β-O-(3′,3′-Dimethylsuccinyl)-17β-(N′-5-methyl-[1,3,4]oxadiazol-2-yl-ureido)-21-oxolup-18-ene], below 199 nM; with `CC(C)C1=C2C3CCC4[C@@]5(C)CC[C@H](OC(=O)CC(C)(C)C(=O)O)C(C)(C)C5CC[C@@]4(C)[C@]3(C)CC[C@@]2(NC(=O)N2CCC(NC(=O)OC(C)(C)C)CC2)CC1=O` (stereo partly drawn) [17-20, 3β-O-(3′,3′-Dimethylsuccinyl)-17β-[(4-tert-butoxycarbonylamino-piperidine-1-carbonyl)-amino]-21-oxolup-18-ene], below 199 nM.

Turning to `CC(C)C1=C2C3CCC4[C@@]5(C)CC[C@H](OC(=O)CC(C)(C)C(=O)O)C(C)(C)C5CC[C@@]4(C)[C@]3(C)CC[C@@]2(NC(=O)NCC2CC2)CC1=O` (stereo partly drawn) [17-21, 3β-O-(3′,3′-Dimethylsuccinyl)-17β-(N′-cyclopropylmethyl-ureido)-21-oxolup-18-ene], the IC50 was in the range of 200 to 999 nM. Consider `CC(C)C1=C2C3CCC4[C@@]5(C)CC[C@H](OC(=O)CC(C)(C)C(=O)O)C(C)(C)C5CC[C@@]4(C)[C@]3(C)CC[C@@]2(NC(=O)NC2CC2)CC1=O` (stereo partly drawn) [17-22, 3β-O-(3′,3′-Dimethylsuccinyl)-17β-(N′-cyclopropyl-ureido)-21-oxolup-18-ene], for which the 50% inhibitory concentration (IC50) was below 199 nM. Same read-out and setting: the value for `CC(C)C1=C2C3CCC4[C@@]5(C)CC[C@H](OC(=O)CC(C)(C)C(=O)O)C(C)(C)C5CC[C@@]4(C)[C@]3(C)CC[C@@]2(NC(=O)N2CCC(N)CC2)CC1=O` (stereo partly drawn) [17-24, 3β-O-(3′,3′-Dimethylsuccinyl)-17β-[(4-amino-piperidine-1-carbonyl)-amino]-21-oxolup-18-ene] was 200 to 999 nM; that for `CC(C)C1=C2[C@H]3CC[C@@H]4[C@@]5(C)CC[C@H](OC(=O)CC(C)(C)C(=O)O)C(C)(C)[C@@H]5CC[C@@]4(C)[C@]3(C)CC[C@@]2(NC(=O)Nc2ccccn2)CC1=O` [17-25, 3β-O-(3′,3′-Dimethylsuccinyl)-17β-(N′-pyridin-2-yl-ureido)-21-oxolup-18-ene] was below 199 nM; that for `CC(C)C1=C2[C@H]3CC[C@@H]4[C@@]5(C)CC[C@H](OC(=O)CC(C)(C)C(=O)O)C(C)(C)[C@@H]5CC[C@@]4(C)[C@]3(C)CC[C@@]2(NC(=O)Nc2ccncc2)CC1=O` [17-26, 3β-O-(3′,3′-Dimethylsuccinyl)-17β-(N′-pyridin-4-yl-ureido)-21-oxolup-18-ene] was below 199 nM.

`CC(C)C1=C2C3CCC4[C@@]5(C)CC[C@H](OC(=O)CC(C)(C)C(=O)O)C(C)(C)C5CC[C@@]4(C)[C@]3(C)CC[C@@]2(NC(=O)NCc2ccccn2)CC1=O` (stereo partly drawn) [17-27, 3β-O-(3′,3′-Dimethylsuccinyl)-17β-[N′-(pyridin-2-ylmethyl)ureido]-21-oxolup-18-ene]: the IC50 is below 199 nM.

The same assay, now with this note: read-out: MT2 (HIVIIIB) with HS 30% IC50 range, MT2 cells, with 30% human serum, average IC50 if tested more than once.
In the case of `CC(C)C1=C2C3CCC4[C@@]5(C)CC[C@H](OC(=O)CC(C)(C)C(=O)O)C(C)(C)C5CC[C@@]4(C)[C@]3(C)CC[C@@]2(NC(=O)N2CCC(N)CC2)CC1=O` (stereo partly drawn) [17-23, 3β-O-(3′,3′-Dimethylsuccinyl)-17β-[(4-amino-piperidine-1-carbonyl)-amino]-21-oxolup-18-ene trifluoroacetate], the 50% inhibitory concentration (IC50) lay in the range of 200 to 999 nM.
